Columns and labels:
Details in all cases: exposure time 48 h
[1] = system: Caenorhabditis elegans N2; test: AC50 for larval growth inhibition (Hill fit); higher = less potent
Procedure, shortened: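 Synchronised C. elegans N2 L1 larvae, 50 per well in 96-well plates, were grown at 20°C for 48 h in K-medium with killed OP50, 1% DMSO and 0.5–200 µM chemical. Worm size was read on a COPAS Biosort as extinction, log-transformed and averaged per well, and only wells holding at least 10 worms were kept. AC50 was obtained by a constrained Hill fit using weighted genetic-algorithm regression, with out-of-range values censored.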

[2] = system: Caenorhabditis elegans N2; test: mean nematode size ln(EXT) after 48 h, plate-adjusted (DMSO control set to 6) (ln(EXT), control-adjusted); higher = larger nematodes / less growth inhibition
Procedure, shortened: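 Chemical at 0.5–200 µM was tested on synchronised C. elegans N2 L1 larvae grown for 48 h at 20°C in K-medium with killed OP50 and 1% DMSO. Per-worm Biosort extinction, cleared of debris by a growth model, was natural-logged and averaged per well to give mean size. Plates were normalised by subtracting the vehicle control mean and adding 6.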

[3] = system: Caenorhabditis elegans N2; test: lowest effective concentration for larval growth inhibition (size below effect threshold); higher = less potent
Procedure, shortened: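 In 96-well plates, 50 C. elegans N2 L1 larvae per well were cultured at 20°C for 48 h in K-medium with killed bacteria and 1% DMSO, plus the chemical at 0.5, 1, 5, 10, 50, 100 or 200 µM. Size was measured as per-worm extinction on a Biosort and log-transformed into well means. Taking the first dose where the plate-adjusted mean size sits under 5.665 and stays there at higher doses gives the lowest effective concentration.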

Compound | AC50 for larval growth inhibition [1] | mean nematode size ln(EXT) (ln) ([2]; 0.5 µM) | mean nematode size ln(EXT) (ln) ([2]; 1 µM) | mean nematode size ln(EXT) (ln) ([2]; 5 µM) | mean nematode size ln(EXT) (ln) ([2]; 10 µM) | mean nematode size ln(EXT) (ln) ([2]; 50 µM) | mean nematode size ln(EXT) (ln) ([2]; 100 µM) | mean nematode size ln(EXT) (ln) ([2]; 200 µM) | lowest effective concentration [3]
O=c1[nH]sc2ccccc12 [1,2-Benzisothiazolin-3-one] | > 200 µM | 5.72 | 5.71 | 5.73 | 5.74 | 5.69 | 5.5 | 5.48 | 100 µM
O=[N+]([O-])c1ccc(Cl)c(Cl)c1 [1,2-Dichloro-4-nitrobenzene] | 111 µM | 5.95 | 5.94 | 5.93 | 5.99 | 5.79 | 5.66 | 5.54 | 100 µM
c1ccc(NNc2ccccc2)cc1 [1,2-Diphenylhydrazine] | 78.8 µM | 5.81 | 5.72 | 5.71 | 5.69 | 5.22 | 4.11 | 3.42 | 50 µM
Nc1ccccc1N [1,2-Phenylenediamine] | > 200 µM | 5.84 | 5.95 | 5.92 | 5.74 | 5.66 | 5.46 | 5.19 | 50 µM
CC1(C)C(=O)N(Br)C(=O)N1Br [1,3-Dibromo-5,5-dimethylhydantoin] | > 200 µM | 5.7 | 5.78 | 5.81 | 5.86 | 5.87 | 5.87 | 5.61 | 200 µM
CC(C)c1cccc(C(C)C)c1 [1,3-Diisopropylbenzene] | 175 µM | 6.02 | 5.98 | 5.99 | 6.07 | 6.21 | 6.12 | 5.46 | 200 µM
NC(=Nc1ccccc1)Nc1ccccc1 [1,3-Diphenylguanidine] | 16.6 µM | 5.67 | 5.74 | 5.62 | 5.6 | 5.63 | 5.64 | 5.55 | 5 µM
CC(C)(C)c1cc(O)c(C(C)(C)C)cc1O [1,4-Benzenediol, 2,5-bis(1,1-dimethylethyl)-] | 113 µM | 5.85 | 5.93 | 5.73 | 5.79 | 5.7 | 4.85 | 3.48 | 100 µM
Clc1ccc(Cl)cc1 [1,4-Dichlorobenzene] | > 200 µM | 5.89 | 5.93 | 5.94 | 5.84 | 5.84 | 5.73 | 5.58 | 200 µM
C1=CCCC=CCCC=CCC1 [1,5,9-Cyclododecatriene] | > 200 µM | 5.89 | 5.9 | 5.9 | 5.83 | 5.92 | 5.86 | 5.34 | 200 µM
O=C(OCCCCCOC(=O)c1ccccc1)c1ccccc1 [1,5-Pentanediol,1,5-dibenzoate] | > 200 µM | 5.88 | 5.89 | 5.84 | 5.85 | 5.86 | 5.98 | 5.48 | 200 µM
O=C=NCCCCCCN=C=O [1,6-Diisocyanatohexane] | > 200 µM | 5.82 | 5.86 | 5.84 | 5.84 | 5.94 | 5.93 | 5.66 | 200 µM
CCCCCCCCCCO [1-Decanol (Decanol)] | 143 µM | 5.95 | 5.91 | 5.83 | 5.85 | 5.79 | 5.69 | 3.42 | 200 µM
CCCCCCCCCCCCO [1-Dodecanol] | 20.3 µM | 5.89 | 5.85 | 5.73 | 5.63 | 3.72 | 3.69 | 3.49 | 10 µM
CCCCCCCCCCCCCCCCO [1-Hexadecanol] | > 200 µM | 5.89 | 5.83 | 5.86 | 5.79 | 5.68 | 5.79 | 5.64 | 200 µM
Oc1ccc2ccc3cccc4ccc1c2c34 [1-Hydroxypyrene] | 16 µM | 6 | 5.88 | 5.84 | 5.75 | 3.72 | 3.8 | 3.87 | 50 µM
OCCC(F)(F)C(F)(F)C(F)(F)C(F)(F)C(F)(F)C(F)(F)F [1-Octanol, 3,3,4,4,5,5,6,6,7,7,8,8,8-tridecafluoro-] | > 200 µM | 5.87 | 5.92 | 5.88 | 5.94 | 5.91 | 5.77 | 5.65 | 200 µM
CCCCCCCCCCCCCCCO [1-Pentadecanol] | > 200 µM | 5.76 | 5.96 | 5.83 | 5.8 | 5.59 | 5.49 | 5.3 | 50 µM
